pIC50: −log10 of the molar value. Where a name gives a salt, the structure may show the parent alone.
Test system: [^3 H]-GABA uptake
Assay: in vitro inhibition of [3H]-GABA uptake, rat cortical tissue homogenate (method of Fjalland)
Format: biochemical, Male wistar rat
Settings: 40 mM tris HCl pH 7.5, 60 minutes at 30° C.
Protocol: Values for in vitro inhibition of [^3 H]-GABA uptake for the invention compounds were assessed essentially by the method of Fjalland (Acta Pharmacol. Toxicol. 1978, 42, 73-76). Male wistar rat cortical tissue was gently homogenized by hand using a glass/PTFE homogenizer in 10 volumes of 0.32M sucrose. Incubation was performed in a 40 mM tris HCl buffer (pH 7.5 at 30° C.) containing […], 4 mM MgSO4, […] and 10 mM glucose, for 60 minutes at 30° C. Values for inhibition of GABA uptake for some representative compounds are recorded in Table I.

Row | pIC50 | SMILES
1 | 4.19 | O=C(O)[C@@H]1CCCN(CCOc2ccccc2)C1 [Example 1, (R)-1-(2-Phenoxyethyl)-3-piperidinecarboxylic acid hydrochloride]
2 | 5.17 | O=C(O)[C@@H]1CCCN(CCOc2ccccc2Cc2ccccc2)C1 [Example 3, (R)-1-(2-(2-Benzylphenoxy)ethyl)-3-piperidinecarboxylic acid hydrochloride]
3 | 5.25 | O=C(O)[C@@H]1CCCN(CCOc2ccccc2-c2ccccc2)C1 [Example 5, (R)-1-(2-(2-Phenylphenoxy)ethyl)-3-piperidinecarboxylic acid hydrochloride]
4 | 5.25 | O=C(O)[C@@H]1CCCN(CCOc2cccc(-c3ccccc3)c2)C1 [Example 4, (R)-1-(2-(3-Phenylphenoxy)ethyl)-3-piperidinecarboxylic acid hydrochloride]
5 | 4.62 | O=C(O)[C@@H]1CCCN(CCCCOc2ccccc2)C1 [Example 2, (R)-1-(4-Phenoxy-1-butyl)-3-piperidinecarboxylic acid hydrochloride]

Test system: GABA uptake
Assay: not given
Settings: from the synaptic cleft into presynaptic nerve terminals and glial cells; cited from earlier work

Row | SMILES | inhibitor of GABA uptake
6 | O=C(O)C1CCCNC1 (stereo not shown) [3-piperidine-carboxylic acid] | well-known and potent inhibitor of GABA uptake

Test system: GABA uptake
Assay: not given
Settings: oral; Yunger, L. M. et al., J. Pharm. Exp. Ther. 1984, 228, 109; cited from earlier work

Row | SMILES | orally active inhibitor of GABA uptake
7 | O=C(O)CC1CCN(CCC=C(c2ccccc2)c2ccccc2)C1 (stereo not drawn) [SK&F 100561, N-(4,4-diphenyl-3-buten-1-yl)-homo-β-proline] | orally active inhibitors of GABA uptake
8 | O=C(O)C1=CCCN(CCC=C(c2ccccc2)c2ccccc2)C1 [SK&F 100330A, N-(4,4-diphenyl-3-buten-1-yl)guvacine] | orally active inhibitors of GABA uptake
9 | O=C(O)C1CCCN(CCC=C(c2ccccc2)c2cccs2)C1 (stereo not shown) [SK&F 100604J, N-(4-phenyl-4-(2-thienyl)-3-buten-1-yl)nipecotic acid] | orally active inhibitors of GABA uptake
10 | O=C(O)C1CCCN(CCC=C(c2ccccc2)c2ccccc2)C1 (stereo not shown) [SK&F 89976A, N-(4,4-diphenyl-3-buten-1-yl)nipecotic acid] | orally active inhibitors of GABA uptake
